Measurements reported in patent publication US20250051300A1, “GRAM-NEGATIVE SPECIFIC ANTIBIOTICS SPARING EFFECT ON GUT MICROBIOME” (THE BOARD OF TRUSTEES OF THE UNIVERSITY OF ILLINOIS, priority 2021, published 2025).
In brackets after ≈: the same amount, converted by molar mass. Where two headings read alike, the source gives them in different places.

Legend:
[1] = test system: Stenotrophomonas maltophilia; assay: MIC, gut commensal bacteria, micro-dilution broth
Blautia producta = assay: MIC, gut commensal bacteria, micro-dilution broth
Acinetobacter baumannii = assay: MIC, micro-dilution broth method (CLSI); format: cell-based
Source text: (§1) Antimicrobial susceptibility assays.

Streptococcus pyogenes = assay: MIC, micro-dilution broth method (CLSI); format: cell-based; conditions: Streptococcus pyogenes Strain 1055
Source text: as §1

Enterococcus faecium = assay: MIC, micro-dilution broth method (CLSI); format: cell-based; conditions: ATCC19434; Enterococcus faecium ATCC 19434
Source text: as §1

Staphylococcus aureus = assay: MIC, micro-dilution broth method (CLSI); format: cell-based; conditions: ATCC29213; Staphylococcus aureus ATCC 29213
Source text: as §1

[2] = test system: Staphylococcus epidermidis; assay: MIC, micro-dilution broth method (CLSI); format: cell-based; conditions: Staphylococcus epidermidis NRS101
Source text: as §1

Bacillus subtilis = assay: MIC, micro-dilution broth method (CLSI); format: cell-based; conditions: Bacillus subtilis PY79
Source text: as §1

Streptococcus pneumoniae = assay: MIC, micro-dilution broth method (CLSI); format: cell-based; conditions: Streptococcus pneumoniae Strain 1003
Source text: as §1

Bacillus cereus = assay: MIC, micro-dilution broth method (CLSI); format: cell-based; conditions: ATCC11778; Bacillus cereus ATCC 11778
Source text: as §1

Listeria monocytogenes = assay: MIC, micro-dilution broth method (CLSI); format: cell-based; conditions: ATCC19115; Listeria monocytogenes ATCC 19115
Source text: as §1

Pseudomonas aeruginosa = assay: MIC, micro-dilution broth method (CLSI); format: cell-based
Source text: as §1

Bacillus anthracis = assay: microbe, parasite or virus in culture; format: cell-based
gut microbiome = conditions: mouse, in vivo, po
K. pneumoniae AR0040 = assay: Acute pneumonia bacterial burden model; format: in vivo, CD-1 mice; conditions: colistin-resistant K. pneumoniae, 100 mg/kg IP (FIG. 7C)
Bacteroides fragilis = assay: MIC, gut commensal bacteria, micro-dilution broth
[3] = test system: E. coli BW25113 LolC/LolE mutants; assay: MIC against lolamycin-resistant LolCDE mutants; format: cell-based, Escherichia coli
K. pneumoniae BAA-1705 = assay: Bacterial sepsis survival model; format: in vivo, CD-1 mice; conditions: carbapenem-resistant K. pneumoniae, 200 mg/kg IP once daily for 3 days (FIG. 7D)
Bifidobacterium longum = assay: MIC, gut commensal bacteria, micro-dilution broth
Morganella morganii = assay: MIC, gut commensal bacteria, micro-dilution broth
Enterococcus faecalis = assay: MIC, micro-dilution broth method (CLSI); format: cell-based
E. cloacae AR0163 = assay: Acute pneumonia bacterial burden model; format: in vivo, CD-1 mice; conditions: colistin-resistant E. cloacae, 100 mg/kg IP (FIG. 7E)
[4] = test system: Faecalibacterium prausnitzii; assay: MIC, gut commensal bacteria, micro-dilution broth
HFF-1 cells = assay: Cell viability (Alamar Blue), mammalian cell line; format: cell-based; conditions: Homo sapiens, HFF-1, 24 h, read-out: IC50, mammalian cell lines
Protocol: (§2) Cell culture. HFF-1 cells (newborn) were obtained from the ATCC. […] A-549 cells (adult) were obtained from the ATCC. […] All cells were cultured at 37° C. under a 5% CO2 environment. Cell lines were authenticated externally by a commercial vendor and inspected visually in house. Cell lines were not tested for Mycoplasma contamination. The media was prepared by the University of Illinois School of Chemical Sciences Cell Media Facility. Cell viability. HFF-1 cells were seeded (8,000 cells/well) in a 96-well plate (Greiner Bio-One; catalogue number: 655180) and allowed to attach overnight. Cells were treated with investigational compounds in dimethyl sulfoxide (DMSO). […] Raptinal (100 μM) was used as a dead control. On each plate, at least three technical replicates per compound were performed. After 24 h post-treatment, cell viability was assessed using the Alamar Blue method. Stock Alamar Blue solution (10 μL 440 μM resazurin (Sigma-Aldrich; catalogue number: R7017) in sterile 1×PBS) was added to each well, and the plate was incubated for 3-4 h. Conversion of Alamar Blue was measured with a plate reader (SpectraMax M3; Molecular Devices) by fluorescence (excitation wavelength: 555 nm; emission wavelength: 585 nm; cutoff 570 nm; autogain). Percentage death was determined by normalizing to DMSO-treated cells and Raptinal-treated cells. […]

A-549 cells = assay: Cell viability (Alamar Blue), mammalian cell line; format: cell-based; conditions: Homo sapiens, A549, read-out: IC50, mammalian cell lines (converted)
Protocol: as §2

Compound: Cc1cc(-c2c[nH]nc2-c2cccc(OCc3cccc(C#N)c3)c2)cc(C)n1 [Compound 12, 3-((3-(4-(2,6-dimethylpyridin-4-yl)-1H-pyrazol-3-yl)phenoxy)methyl)benzonitrile]
- MIC ([1]; Stenotrophomonas maltophilia ATCC 13637, BHI-ych, listed as Lolamycin): >128 mg/L
- MIC ([1]; Stenotrophomonas maltophilia, ATCC13637): > 128 mg/L
- MIC (Blautia producta): > 128 mg/L
- MIC (Blautia producta; Blautia producta, ATCC27340): > 128 mg/L
- MIC (Acinetobacter baumannii; ATCC19606, Acinetobacter baumannii ATCC 19606): > 128 mg/L
- MIC (Acinetobacter baumannii; ATCC19606, Acinetobacter baumannii ATCC 19606 Δ3): 32 mg/L (≈ 84.1 µM)
- MIC (Streptococcus pyogenes): > 128 mg/L
- MIC (Enterococcus faecium): > 128 mg/L
- MIC (Staphylococcus aureus): > 128 mg/L
- MIC [2]: > 128 mg/L
- MIC (Bacillus subtilis): > 128 mg/L
- MIC (Streptococcus pneumoniae): > 128 mg/L
- MIC (Bacillus cereus): > 128 mg/L
- MIC (Listeria monocytogenes): > 128 mg/L
- MIC (Pseudomonas aeruginosa; Pseudomonas aeruginosa PAO1, read-out: MIC): > 128 mg/L
- MIC (Pseudomonas aeruginosa; Pseudomonas aeruginosa PAO1 Δ6): > 128 mg/L
- MIC (Bacillus anthracis): > 128 mg/L
- effect on gut microbiome taxonomic composition (gut microbiome): did not cause any drastic changes in taxonomic composition
- efficacy, bacterial burden (K. pneumoniae AR0040): showed the efficacy
- MIC (Bacteroides fragilis; Bacteroides fragilis ATCC 25285, BHI-ych, listed as Lolamycin): >128 mg/L
- MIC (Bacteroides fragilis; Bacteroides fragilis, ATCC25285): > 128 mg/L
- MIC ([3]; E. coli BW25113 mutant D264N (LolE), selected at 32-fold MIC): >128 mg/L
- MIC ([3]; E. coli BW25113 mutant E195K (LolC), selected at 32-fold MIC): >128 mg/L
- MIC ([3]; E. coli BW25113 mutant E255D (LolC), selected at 32-fold MIC): >128 mg/L
- MIC ([3]; E. coli BW25113 mutant F367S (LolE), selected at 32-fold MIC): >128 mg/L
- MIC ([3]; E. coli BW25113 mutant I206N (LolE), selected at 32-fold MIC): >128 mg/L
- MIC ([3]; E. coli BW25113 mutant M262I (LolC), selected at 32-fold MIC): >128 mg/L
- MIC ([3]; E. coli BW25113 mutant N265K (LolC), selected at 32-fold MIC): >128 mg/L
- MIC ([3]; E. coli BW25113 mutant Q258P (LolC), selected at 32-fold MIC): >128 mg/L
- MIC ([3]; Escherichia coli, BW25113): > 128 mg/L
- efficacy, survival (K. pneumoniae BAA-1705): showed the efficacy
- MIC (Bifidobacterium longum; Bifidobacterium longum ATCC BAA-999, BHI-ych, listed as Lolamycin): >128 mg/L
- MIC (Bifidobacterium longum; Bifidobacterium longum, ATCCBAA999): > 128 mg/L
- MIC (Morganella morganii; ATCC25380): > 128 mg/L
- MIC (Morganella morganii; ATCC25839): > 128 mg/L
- MIC (Enterococcus faecalis; Enterococcus faecalis): > 128 mg/L
- MIC (Enterococcus faecalis; Enterococcus faecalis KLE 2341, BHI-ych, listed as Lolamycin): >128 mg/L
- MIC (Enterococcus faecalis; Enterococcus faecalis, ATCC19433): > 128 mg/L
- efficacy, bacterial burden (E. cloacae AR0163): showed the efficacy
- MIC ([4]; Faecalibacterium prausnitzii ATCC 27768, BHI-ych, listed as Lolamycin): >128 mg/L
- MIC ([4]; Faecalibacterium prausnitzii, ATCC27768): > 128 mg/L
- IC50 (HFF-1 cells): 85.3 ± 11.8 µM
- IC50 (A-549 cells): 41.9 µM
